Source: the NIST ThermoML archive (doi:10.1021/je1006357)

Columns and labels:
[1] = refractive index (Na D-line) (dimensionless); conditions: 101.33 kPa, Liquid, Standard Abbe refractometry
[2] = for viscosity / speed of sound / mass density: 101.33 kPa, Liquid; for viscosity: Capillary tube (Ostwald / Ubbelohde) method; for speed of sound: Pulse-echo method; for mass density: Vibrating tube method; for Normal melting temperature: Crystal, DTA

CCCC[N+]1(CC)CCCC1.CCOS(=O)(=O)[O-] [1-butyl-1-ethylpyrrolidinium ethyl sulfate]
Conditions | mass density, [2] [kg/m3] | refractive index, [1] | speed of sound, [2] [m/s] | viscosity, [2] [mPa·s]
328.15 K | 1118.72 | 1.4671 | 1602 | 105.5
333.15 K | 1115.98 | 1.46581 | 1589.6 | 82.9
338.15 K | 1113.02 | 1.46454 | 1577.2 | 66.8
343.15 K | 1110.08 | 1.46315 | 1564.9 | 55.8

Conditions | Normal melting temperature [°C]
[2] | 53

CCCC[N+]1(C)CCCC1.COS(=O)(=O)[O-] [1-butyl-1-methylpyrrolidinium methyl sulfate]
Conditions | mass density, [2] [kg/m3] | refractive index, [1] | speed of sound, [2] [m/s] | viscosity, [2] [mPa·s]
298.15 K | 1166.69 | 1.47308 | 1741.6 | 467.5
303.15 K | 1163.58 | 1.47184 | 1727.3 | 334.9
308.15 K | 1160.46 | 1.47054 | 1713.6 | 245.6
313.15 K | 1157.4 | 1.46924 | 1700.3 | 184.1
318.15 K | 1154.4 | 1.46792 | 1687.4 | 139.2
323.15 K | 1151.42 | 1.46661 | 1674.7 | 107.8
328.15 K | 1148.42 | 1.46536 | 1662.2 | 86.1
333.15 K | 1145.42 | 1.46406 | 1649.8 | 69.2
338.15 K | 1142.44 | 1.46274 | 1637.6 | 56.4
343.15 K | 1139.47 | 1.46143 | 1625.5 | 46.6

CCOS(=O)(=O)[O-].CC[N+]1(C)CCCC1 [1-ethyl-1-methylpyrrolidinium ethyl sulfate]
Conditions | mass density, [2] [kg/m3] | refractive index, [1] | speed of sound, [2] [m/s] | viscosity, [2] [mPa·s]
308.15 K | 1189.67 | 1.47021 | 1750.2 | 172
313.15 K | 1186.53 | 1.46891 | 1737.5 | 134.9
318.15 K | 1183.41 | 1.4676 | 1725.2 | 107.5
323.15 K | 1180.3 | 1.46632 | 1713 | 86.8
328.15 K | 1177.22 | 1.46506 | 1701 | 71.2
333.15 K | 1174.15 | 1.46378 | 1689.2 | 59.1
338.15 K | 1171.11 | 1.46246 | 1677.3 | 49.5
343.15 K | 1168.07 | 1.46116 | 1665.7 | 42

Conditions | Normal melting temperature [°C]
[2] | 33

CC[N+](C)(CC)CC.COS(=O)(=O)[O-] [N,N-diethyl-N-methylethanaminium methyl sulfate]
Conditions | mass density, [2] [kg/m3] | refractive index, [1] | speed of sound, [2] [m/s] | viscosity, [2] [mPa·s]
308.15 K | 1166.44 | 1.46191 | 1853.5 | 218.5
313.15 K | 1163.4 | 1.46065 | 1839.7 | 165.6
318.15 K | 1160.36 | 1.45939 | 1826.3 | 127.7
323.15 K | 1157.34 | 1.45812 | 1813.1 | 100.3
328.15 K | 1154.32 | 1.45687 | 1800 | 79.7
333.15 K | 1151.33 | 1.45561 | 1787.1 | 64
338.15 K | 1148.34 | 1.45402 | 1774.2 | 53.42
343.15 K | 1145.36 | 1.45283 | 1761.5 | 44.92

Conditions | Normal melting temperature [°C]
[2] | 33
